Source: ChEMBL document CHEMBL1817628, “Structure-based design of new DHFR-based antibacterial agents: 7-aryl-2,4-diaminoquinazolines” (Bioorg Med Chem Lett, 2011)
≈ marks a conversion by molar mass, not a printed value.

How the values were obtained:
Staphylococcus aureus [1] = assay: Antibacterial activity against Staphylococcus aureus Smith ATCC 13709 by CLSI microdilution method; type: functional
Enterococcus faecalis = assay: Antibacterial activity against Enterococcus faecalis ATCC 29212 by CLSI microdilution method; type: functional
Staphylococcus aureus [2] = assay: Antibacterial activity against TMP-resistant Staphylococcus aureus harboring DHFR F99Y mutant by CLSI microdilution method; type: functional
[3] = Inhibition of Haemophilus influenzae DHFR assessed as oxidation of NADPH using dihydrofolate as substrate pre-incubated for 10 mins before substrate addition by spectrophotometry
Staphylococcus aureus [4] = assay: Antibacterial activity against Staphylococcus aureus Smith ATCC 13709 in presence of 20% mouse serum by CLSI microdilution method; type: functional
Escherichia coli = assay: Antibacterial activity against Escherichia coli ATCC 35218 by CLSI microdilution method; type: functional
Haemophilus influenzae = assay: Antibacterial activity against ampicillin-resistant Haemophilus influenzae ATCC 49247 by CLSI microdilution method; type: functional
Dihydrofolate reductase [5] = target: T1, Dihydrofolate reductase (Homo sapiens, UniProt P00374); assay: Inhibition of human DHFR assessed as oxidation of NADPH using dihydrofolate as substrate pre-incubated for 10 mins before substrate addition by spectrophotometry
T1 sequence (P00374 whole entry): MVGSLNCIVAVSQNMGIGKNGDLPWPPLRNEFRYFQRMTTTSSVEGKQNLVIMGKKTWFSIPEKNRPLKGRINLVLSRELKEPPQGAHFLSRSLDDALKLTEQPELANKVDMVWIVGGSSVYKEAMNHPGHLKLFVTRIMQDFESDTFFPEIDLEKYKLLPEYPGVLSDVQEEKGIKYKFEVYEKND

Dihydrofolate reductase [6] = target: Dihydrofolate reductase (Staphylococcus aureus, UniProt P0A017); assay: Inhibition of Staphylococcus aureus DHFR assessed as oxidation of NADPH using dihydrofolate as substrate pre-incubated for 10 mins before substrate addition by spectrophotometry
Dihydrofolate reductase [7] = target: Dihydrofolate reductase (Staphylococcus aureus, UniProt P0A017, F99Y); assay: Inhibition of TMP-resistant Staphylococcus aureus DHFR F99Y mutant assessed as oxidation of NADPH using dihydrofolate as substrate pre-incubated for 10 mins before substrate addition by spectrophotometry

Row | SMILES | MIC (Staphylococcus aureus [1]) [µg/mL] | MIC (Enterococcus faecalis) [µg/mL] | MIC (Staphylococcus aureus [2]) [µg/mL] | Ki [3] [pM] | MIC (Staphylococcus aureus [4]) [µg/mL] | MIC (Escherichia coli) [µg/mL] | MIC (Haemophilus influenzae) [µg/mL] | Ki (Dihydrofolate reductase [5]) [pM] | Ki (Dihydrofolate reductase [6]) [pM] | Ki (Dihydrofolate reductase [7]) [pM]
1 | COc1cc(Cc2cnc(N)nc2N)c2c(c1OC)OC(C1CC1)C=C2 (configuration not stated) | 0.13 (≈ 0.367 µM) | 0.03 (≈ 0.0846 µM) | 2 (≈ 5.64 µM) | 7 | 0.13 | 4 (≈ 11.3 µM) | 1 (≈ 2.82 µM) | – | – | –
2 | Cc1cc2c(N)nc(N)nc2cc1-c1ccccc1C(C)C | 0.25 (≈ 0.855 µM) | 0.5 (≈ 1.71 µM) | – | 37 | 1 | 16 (≈ 54.7 µM) | 8 (≈ 27.4 µM) | 20900 | 130 | –
3 | Nc1nc(N)c2ccc(-c3ccccc3)cc2n1 | 8 (≈ 33.9 µM) | 8 (≈ 33.9 µM) | – | 520 | 64 | 16 (≈ 67.7 µM) | 16 (≈ 67.7 µM) | 743000 | 9100 | –
4 | Cc1cc2c(N)nc(N)nc2cc1-c1ccccc1 | 1 (≈ 4 µM) | 0.5 (≈ 2 µM) | – | 7.3 | 2 | 8 (≈ 32 µM) | 2 (≈ 7.99 µM) | 129000 | 1600 | –
5 | Nc1ccc(-c2ccc3c(N)nc(N)nc3c2)cc1 | 4 (≈ 15.9 µM) | 8 (≈ 31.8 µM) | – | 160 | 2 | 32 (≈ 127 µM) | 4 (≈ 15.9 µM) | – | – | –
6 | Cc1cc2c(N)nc(N)nc2cc1-c1ccc(N)cc1 | 1 (≈ 3.77 µM) | 0.5 (≈ 1.88 µM) | – | 1.8 | 1 | 8 (≈ 30.2 µM) | 2 (≈ 7.54 µM) | – | – | –
7 | CS(=O)(=O)c1ccc(-c2ccc3c(N)nc(N)nc3c2)cc1 | 8 (≈ 25.4 µM) | 16 (≈ 50.9 µM) | – | 220 | 8 | > 64 | 16 (≈ 50.9 µM) | 253000 | 5000 | –
8 | Cc1cc2c(N)nc(N)nc2cc1-c1ccc(S(C)(=O)=O)cc1 | 2 (≈ 6.09 µM) | 1 (≈ 3.05 µM) | – | 2.3 | 1 | 32 (≈ 97.4 µM) | 8 (≈ 24.4 µM) | 44100 | 1200 | –
9 | COc1ccccc1-c1ccc2c(N)nc(N)nc2c1 | 2 (≈ 7.51 µM) | 4 (≈ 15 µM) | – | 210 | 4 | 32 (≈ 120 µM) | 16 (≈ 60.1 µM) | – | – | –
10 | COc1ccc(-c2cc3nc(N)nc(N)c3cc2C)cc1OC | 0.5 (≈ 1.61 µM) | 0.5 (≈ 1.61 µM) | – | 1.8 | 0.5 | 8 (≈ 25.8 µM) | 4 (≈ 12.9 µM) | 12200 | 350 | –
11 | COc1ccc(OC)c(-c2cc3nc(N)nc(N)c3cc2C)c1 | 1 (≈ 3.22 µM) | 4 (≈ 12.9 µM) | – | 14 | 1 | 16 (≈ 51.6 µM) | 8 (≈ 25.8 µM) | – | – | –
12 | Cc1ccccc1-c1cc2nc(N)nc(N)c2cc1C | 0.5 (≈ 1.89 µM) | 0.5 (≈ 1.89 µM) | – | 37 | 2 | 8 (≈ 30.3 µM) | 4 (≈ 15.1 µM) | 95600 | 770 | –
13 | CCc1ccccc1-c1cc2nc(N)nc(N)c2cc1C | 0.25 (≈ 0.898 µM) | 0.25 (≈ 0.898 µM) | – | 32 | 0.5 | 8 (≈ 28.7 µM) | 8 (≈ 28.7 µM) | 41100 | 190 | –
14 | CCOc1ccccc1-c1ccc2c(N)nc(N)nc2c1 | 4 (≈ 14.3 µM) | 4 (≈ 14.3 µM) | – | 270 | 8 | 32 (≈ 114 µM) | 16 (≈ 57.1 µM) | 85000 | 3100 | –
15 | CC(=O)c1cccc(-c2ccc3c(N)nc(N)nc3c2)c1 | 4 (≈ 14.4 µM) | 4 (≈ 14.4 µM) | – | 310 | 8 | 32 (≈ 115 µM) | 64 (≈ 230 µM) | – | – | –
16 | CC(=O)c1cccc(-c2cc3nc(N)nc(N)c3cc2C)c1 | 0.5 (≈ 1.71 µM) | 0.5 (≈ 1.71 µM) | – | 6 | 1 | 4 (≈ 13.7 µM) | 1 (≈ 3.42 µM) | – | – | –
17 | CCOc1ccc(C=O)cc1-c1cc2nc(N)nc(N)c2cc1C | 1 (≈ 3.1 µM) | 0.5 (≈ 1.55 µM) | – | 220 | 1 | 16 (≈ 49.6 µM) | 2 (≈ 6.2 µM) | 12000 | 240 | –
18 | CCOc1ccc(Cl)cc1-c1cc2nc(N)nc(N)c2cc1C | 1 (≈ 3.04 µM) | 0.5 (≈ 1.52 µM) | – | 23 | 2 | 8 (≈ 24.3 µM) | 8 (≈ 24.3 µM) | 11100 | 380 | –
19 | CCOc1ccc(C)cc1-c1cc2nc(N)nc(N)c2cc1C | 1 (≈ 3.24 µM) | 0.5 (≈ 1.62 µM) | – | 34 | 4 | 16 (≈ 51.9 µM) | 16 (≈ 51.9 µM) | 22200 | 850 | –
20 | CCOc1ccc(Br)cc1-c1cc2nc(N)nc(N)c2cc1C | 1 (≈ 2.68 µM) | 0.5 (≈ 1.34 µM) | – | 44 | 8 | 32 (≈ 85.7 µM) | 32 (≈ 85.7 µM) | 11100 | 760 | –
21 | CCOc1ccc2[nH]ccc2c1-c1cc2nc(N)nc(N)c2cc1C | 0.25 (≈ 0.75 µM) | 0.25 (≈ 0.75 µM) | – | 82 | 1 | 8 (≈ 24 µM) | 16 (≈ 48 µM) | 245000 | 610 | –
22 | CCOc1ccc(-c2cccnc2)cc1-c1ccc2c(N)nc(N)nc2c1 | 0.5 (≈ 1.4 µM) | 0.5 (≈ 1.4 µM) | – | 11 | 8 | > 16 | 16 (≈ 44.8 µM) | 10100 | 300 | –
23 | CCOc1ccc(-c2cccc(NS(C)(=O)=O)c2)cc1-c1ccc2c(N)nc(N)nc2c1 | 0.5 (≈ 1.11 µM) | 0.5 (≈ 1.11 µM) | – | 4.9 | 2 | 64 (≈ 142 µM) | 8 (≈ 17.8 µM) | – | – | –
24 | CCOc1ccc2ccccc2c1-c1cc2nc(N)nc(N)c2cc1C | 0.125 (≈ 0.363 µM) | 0.5 (≈ 1.45 µM) | 1 (≈ 2.9 µM) | 15 | 0.5 | 16 (≈ 46.5 µM) | 16 (≈ 46.5 µM) | – | – | 2400
25 | CCOc1ccc(C(=O)N(CC)CC)cc1-c1cc2nc(N)nc(N)c2cc1C | 0.5 (≈ 1.27 µM) | 0.5 (≈ 1.27 µM) | 8 (≈ 20.3 µM) | 13 | 0.5 | 64 (≈ 163 µM) | 64 (≈ 163 µM) | – | – | 6000
26 | COc1cc(Cc2cnc(N)nc2N)cc(OC)c1OC [TRIMETHOPRIM] | 1 (≈ 3.44 µM) | 0.5 (≈ 1.72 µM) | 32 (≈ 110 µM) | 190 | 1 | 1 (≈ 3.44 µM) | 0.5 (≈ 1.72 µM) | – | – | –
